Active and inactive are the calls of the source. No cut-off for these calls is given here.
Legend:
[1] = target: Epidermal growth factor receptor (Homo sapiens, UniProt P00533)
[2] = Inhibition of PKC (unknown origin); set-up: species or system Homo sapiens
[3] = Metabolic stability in monkey liver microsomes assessed as half life at 100 uM/L measured upto 90 mins by LC-MS/MS analysis; assay type: ADME, Macaca mulatta, Microsome; conditions: rhesus monkey
[4] = target: Ribosomal protein S6 kinase alpha-3 (Homo sapiens, UniProt P51812); assay: Inhibition of recombinant human RSK2 using Histone H3 full length as substrate incubate for 10 mins by LANCE assay
[5] = Clearance in Sprague-Dawley rat at 3 mg/kg, po measured up to 24 hrs by LC-MS/MS analysis; assay type: ADME, organism-based; conditions: in vivo
[6] = target: Calcium/calmodulin-dependent protein kinase kinase 2 (Homo sapiens, UniProt Q96RR4); assay: Inhibition of CAMKK2 (unknown origin)
[7] = AUC (0 to t) in Sprague-Dawley rat at 3 mg/kg, iv measured up to 24 hrs by LC-MS/MS analysis; assay type: ADME, organism-based; set-up: route intravenous, dose 3 mg/kg, time <=24; conditions: in vivo
[8] = target: Tyrosine-protein kinase FRK (Homo sapiens, UniProt P42685); assay: Inhibition of FRK (unknown origin)
[9] = target: Tyrosine-protein kinase Blk (Homo sapiens, UniProt P51451); assay: Inhibition of BLK (unknown origin)
[10] = Clearance in Sprague-Dawley rat at 3 mg/kg, iv measured up to 24 hrs by LC-MS/MS analysis; assay type: ADME, organism-based; conditions: in vivo
[11] = target: Tyrosine-protein kinase Lck (Homo sapiens, UniProt P06239); assay: Inhibition of recombinant human LCK using Ulight-Poly GAT[EAY(1:1:1)]n as substrate incubate for 10 mins by LANCE assay
[12] = target: Receptor-type tyrosine-protein kinase FLT3 (Homo sapiens, UniProt P36888); assay: Inhibition of FLT3 (unknown origin)
[13] = Toxicity in BALB/c mouse assessed as mouse survival at 2 g/kg, po measured after 7 days of administration; conditions: in vivo, 168 h
[14] = Toxicity in BALB/c mouse assessed as effect on sensitive to light at 2 g/kg, po measured after 7 days of administration; conditions: in vivo, 168 h
[15] = target: Tyrosine-protein kinase Fgr (Homo sapiens, UniProt P09769); assay: Inhibition of FGR (unknown origin)
[16] = target: Ribosomal protein S6 kinase alpha-2 (Homo sapiens, UniProt Q15349); assay: Inhibition of RSK3 (unknown origin)
Sequence of Ribosomal protein S6 kinase alpha-2 (Q15349 whole entry): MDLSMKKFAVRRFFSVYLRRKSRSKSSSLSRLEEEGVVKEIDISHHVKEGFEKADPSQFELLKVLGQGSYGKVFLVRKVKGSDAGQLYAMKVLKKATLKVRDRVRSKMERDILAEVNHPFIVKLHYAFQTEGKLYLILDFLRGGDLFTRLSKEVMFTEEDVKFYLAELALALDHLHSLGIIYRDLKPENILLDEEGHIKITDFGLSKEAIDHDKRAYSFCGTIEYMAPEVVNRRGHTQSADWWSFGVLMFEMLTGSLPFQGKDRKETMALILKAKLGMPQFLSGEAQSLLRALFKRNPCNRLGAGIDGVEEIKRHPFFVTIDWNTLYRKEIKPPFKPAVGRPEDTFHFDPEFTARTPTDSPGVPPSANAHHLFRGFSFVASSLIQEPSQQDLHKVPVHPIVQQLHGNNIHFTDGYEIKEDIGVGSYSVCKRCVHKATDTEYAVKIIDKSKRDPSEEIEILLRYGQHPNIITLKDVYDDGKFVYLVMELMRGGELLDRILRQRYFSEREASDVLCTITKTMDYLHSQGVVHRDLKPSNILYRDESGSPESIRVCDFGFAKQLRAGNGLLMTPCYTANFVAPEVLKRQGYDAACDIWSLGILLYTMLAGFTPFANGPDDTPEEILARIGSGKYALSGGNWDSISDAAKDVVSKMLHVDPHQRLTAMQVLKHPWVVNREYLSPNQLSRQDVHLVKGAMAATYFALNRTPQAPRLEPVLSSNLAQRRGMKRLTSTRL

[17] = Volume of distribution in Sprague-Dawley rat at 3 mg/kg, po measured up to 24 hrs by LC-MS/MS analysis; assay type: ADME, organism-based; conditions: in vivo
[18] = target: T1, Tyrosine-protein kinase BTK (Homo sapiens, UniProt Q06187); assay: Inhibition of BTK in human Raji cells assessed as reduction in BTK Y223 phosphorylation incubated for 1 hr by Western blot analysis; assay type: cell-based; conditions: dose 0.03-10 µM
T1 sequence (Q06187 whole entry): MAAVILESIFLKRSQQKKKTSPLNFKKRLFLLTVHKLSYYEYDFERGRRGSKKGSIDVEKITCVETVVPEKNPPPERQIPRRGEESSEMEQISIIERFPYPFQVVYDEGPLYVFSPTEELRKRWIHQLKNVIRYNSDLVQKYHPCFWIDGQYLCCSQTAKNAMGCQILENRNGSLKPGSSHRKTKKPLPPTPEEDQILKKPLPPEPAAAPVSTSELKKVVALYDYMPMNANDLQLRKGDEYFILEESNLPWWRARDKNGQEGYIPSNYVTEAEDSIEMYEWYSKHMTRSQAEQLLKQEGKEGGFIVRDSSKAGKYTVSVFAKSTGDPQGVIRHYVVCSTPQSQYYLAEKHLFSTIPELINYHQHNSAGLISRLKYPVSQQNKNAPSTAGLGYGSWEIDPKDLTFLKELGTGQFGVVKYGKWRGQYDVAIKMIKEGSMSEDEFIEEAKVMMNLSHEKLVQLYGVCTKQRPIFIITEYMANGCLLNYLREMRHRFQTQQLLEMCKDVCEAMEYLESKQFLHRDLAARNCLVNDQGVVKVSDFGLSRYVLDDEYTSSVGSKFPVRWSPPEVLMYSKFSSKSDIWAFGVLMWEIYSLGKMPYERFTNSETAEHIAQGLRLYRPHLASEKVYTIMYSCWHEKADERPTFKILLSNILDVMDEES

[19] = target: Tyrosine-protein kinase JAK3 (Homo sapiens, UniProt P52333); assay: Inhibition of recombinant human JAK3 using Ulight-CAGAGAIETDKEYYTVKD as substrate incubate for 60 mins by LANCE assay
[20] = Toxicity in DBA/1J mouse assessed as effect on body weight at 20 mg/kg, po administered for 30 days and measured on day 30; assay type: organism-based; conditions: in vivo, 720 h, time 30 day
[21] = target: T1, Tyrosine-protein kinase BTK; assay: Inhibition of BTK in human U2932 cells assessed as reduction in PLCgamma2 Y1217 phosphorylation at 0.03 to 10 uM incubated for 1 hr by Western blot analysis; assay type: cell-based; conditions: dose 0.03-10 µM
[22] = target: Proto-oncogene tyrosine-protein kinase Src (Homo sapiens, UniProt P12931); assay: Inhibition of recombinant human SRC using Ulight-Poly GAT[EAY(1:1:1)]n as substrate incubate for 10 mins by LANCE assay
[23] = target: Ribosomal protein S6 kinase alpha-1 (Homo sapiens, UniProt Q15418); assay: Inhibition of RSK1 (unknown origin)
[24] = target: Ribosomal protein S6 kinase alpha-6 (Homo sapiens, UniProt Q9UK32); assay: Inhibition of RSK4 (unknown origin)
[25] = Inhibition of GSK3alpha/GSK3beta (unknown origin); set-up: species or system Homo sapiens
[26] = target: Tyrosine-protein kinase JAK1 (Homo sapiens, UniProt P23458); assay: Inhibition of JAK1 (unknown origin)
Sequence of Tyrosine-protein kinase JAK1 (P23458 whole entry): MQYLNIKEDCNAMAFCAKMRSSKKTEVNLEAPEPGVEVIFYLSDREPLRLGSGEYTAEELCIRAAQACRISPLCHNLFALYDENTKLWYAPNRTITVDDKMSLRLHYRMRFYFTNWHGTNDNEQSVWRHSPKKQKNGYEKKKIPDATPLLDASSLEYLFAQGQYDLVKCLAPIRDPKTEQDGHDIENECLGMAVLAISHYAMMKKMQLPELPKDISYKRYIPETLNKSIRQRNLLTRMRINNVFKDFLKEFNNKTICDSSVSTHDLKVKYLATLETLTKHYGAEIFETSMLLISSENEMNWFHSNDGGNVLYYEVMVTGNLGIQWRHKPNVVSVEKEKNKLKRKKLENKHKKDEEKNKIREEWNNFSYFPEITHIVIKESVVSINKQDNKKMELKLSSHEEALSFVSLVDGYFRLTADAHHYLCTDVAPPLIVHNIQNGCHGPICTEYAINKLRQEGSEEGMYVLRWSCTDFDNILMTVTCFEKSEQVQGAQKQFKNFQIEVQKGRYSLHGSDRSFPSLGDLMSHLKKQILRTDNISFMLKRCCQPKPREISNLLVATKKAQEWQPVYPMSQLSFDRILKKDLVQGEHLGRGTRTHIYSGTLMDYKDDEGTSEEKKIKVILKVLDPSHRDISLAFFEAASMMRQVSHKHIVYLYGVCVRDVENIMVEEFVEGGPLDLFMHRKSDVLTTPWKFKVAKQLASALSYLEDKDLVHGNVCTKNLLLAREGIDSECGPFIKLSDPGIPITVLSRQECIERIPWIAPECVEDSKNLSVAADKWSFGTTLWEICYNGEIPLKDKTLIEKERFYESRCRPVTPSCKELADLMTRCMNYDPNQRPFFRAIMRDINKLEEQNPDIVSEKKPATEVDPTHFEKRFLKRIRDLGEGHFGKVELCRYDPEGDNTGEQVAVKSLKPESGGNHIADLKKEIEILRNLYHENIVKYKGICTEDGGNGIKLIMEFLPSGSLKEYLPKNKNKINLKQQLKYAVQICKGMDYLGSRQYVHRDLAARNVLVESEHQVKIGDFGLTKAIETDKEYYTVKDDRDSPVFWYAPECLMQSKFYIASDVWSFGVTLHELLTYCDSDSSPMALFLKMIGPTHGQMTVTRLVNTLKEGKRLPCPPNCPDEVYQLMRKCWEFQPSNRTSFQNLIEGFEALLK

[27] = target: Tyrosine-protein kinase CSK (Homo sapiens, UniProt P41240); assay: Inhibition of CSK (unknown origin)
[28] = target: T1, Tyrosine-protein kinase BTK
Description: Reversible inhibition of BTK (unknown origin) assessed as association rate constant by caliper mobility shift assay

[29] = Oral bioavailability in Sprague-Dawley rat at 3 mg/kg measured up to 24 hrs by LC-MS/MS analysis; assay type: ADME, organism-based; conditions: in vivo
[30] = target: T1, Tyrosine-protein kinase BTK; assay: Inhibition of BTK in human Daudi cells assessed as reduction in PLCgamma2 Y1217 phosphorylation at 0.03 to 10 uM incubated for 1 hr by Western blot analysis; assay type: cell-based; conditions: dose 0.03-10 µM
[31] = Metabolic stability in monkey liver microsomes assessed as intrinsic clearance at 100 uM/L measured upto 90 mins by LC-MS/MS analysis; assay type: ADME, Macaca mulatta, Microsome; conditions: rhesus monkey, 1.5 h
[32] = target: Tyrosine-protein kinase SYK (Homo sapiens, UniProt P43405); assay: Inhibition of SYK (unknown origin)
[33] = target: Tyrosine-protein kinase TXK (Homo sapiens, UniProt P42681); assay: Inhibition of TXK (unknown origin)
[34] = target: Dual specificity mitogen-activated protein kinase kinase 2 (Homo sapiens, UniProt P36507); assay: Inhibition of MEK2 (unknown origin)
[35] = Toxicity in BALB/c mouse assessed as effect on lung at 2 g/kg, po measured after 7 days of administration by histopathological analysis; conditions: in vivo, 168 h
[36] = Metabolic stability in human liver microsomes assessed as intrinsic clearance at 100 uM/L measured upto 90 mins by LC-MS/MS analysis; assay type: ADME, Microsome; conditions: 1.5 h
[37] = target: Macrophage colony-stimulating factor 1 receptor (Homo sapiens, UniProt P07333); assay: Inhibition of recombinant human FMS using Ulight-TK peptide as substrate incubate for 15 mins by LANCE assay
Sequence of Macrophage colony-stimulating factor 1 receptor (P07333 whole entry): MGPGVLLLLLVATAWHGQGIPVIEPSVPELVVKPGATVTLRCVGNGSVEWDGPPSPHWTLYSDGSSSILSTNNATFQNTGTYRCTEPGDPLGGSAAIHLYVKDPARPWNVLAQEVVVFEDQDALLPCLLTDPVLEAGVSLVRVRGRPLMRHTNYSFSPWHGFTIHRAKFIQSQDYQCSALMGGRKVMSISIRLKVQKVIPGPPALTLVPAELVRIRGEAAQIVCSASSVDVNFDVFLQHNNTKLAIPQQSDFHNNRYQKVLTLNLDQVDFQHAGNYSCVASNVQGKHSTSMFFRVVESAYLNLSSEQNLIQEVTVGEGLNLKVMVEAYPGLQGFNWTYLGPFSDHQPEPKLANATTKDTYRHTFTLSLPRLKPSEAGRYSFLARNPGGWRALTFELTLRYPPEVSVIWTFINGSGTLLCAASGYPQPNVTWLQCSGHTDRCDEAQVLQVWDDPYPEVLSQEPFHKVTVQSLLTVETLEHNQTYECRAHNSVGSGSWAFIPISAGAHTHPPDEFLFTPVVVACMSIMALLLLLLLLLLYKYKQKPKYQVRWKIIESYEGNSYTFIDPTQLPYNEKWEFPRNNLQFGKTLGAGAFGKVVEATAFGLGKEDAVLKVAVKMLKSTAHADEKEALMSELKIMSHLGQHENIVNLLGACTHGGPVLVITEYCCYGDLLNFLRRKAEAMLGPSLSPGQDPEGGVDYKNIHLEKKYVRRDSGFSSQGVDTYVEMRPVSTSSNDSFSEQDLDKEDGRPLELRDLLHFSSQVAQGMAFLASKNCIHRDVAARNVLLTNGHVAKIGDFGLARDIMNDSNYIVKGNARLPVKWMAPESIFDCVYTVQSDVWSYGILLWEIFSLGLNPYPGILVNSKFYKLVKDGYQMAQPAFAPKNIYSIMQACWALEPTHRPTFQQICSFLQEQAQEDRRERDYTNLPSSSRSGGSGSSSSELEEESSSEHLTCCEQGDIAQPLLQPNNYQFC

[38] = Toxicity in BALB/c mouse assessed as free movement at 2 g/kg, po measured after 7 days of administration; conditions: in vivo, 168 h
[39] = target: Tyrosine-protein kinase HCK (Homo sapiens, UniProt P08631); assay: Inhibition of HCK (unknown origin)
[40] = target: Tyrosine-protein kinase ITK/TSK (Homo sapiens, UniProt Q08881); assay: Inhibition of ITK (unknown origin)
[41] = target: Calcium/calmodulin-dependent protein kinase kinase 1 (Homo sapiens, UniProt Q8N5S9); assay: Inhibition of CAMKK1 (unknown origin)
[42] = AUC (0 to t) in Sprague-Dawley rat at 3 mg/kg, po measured up to 24 hrs by LC-MS/MS analysis; assay type: ADME, organism-based; set-up: route oral, dose 3 mg/kg, time <=24; conditions: in vivo
[43] = Toxicity in BALB/c mouse assessed as normal behavior at 2 g/kg, po measured after 7 days of administration; conditions: in vivo, 168 h

Sequence of Epidermal growth factor receptor (P00533 whole entry): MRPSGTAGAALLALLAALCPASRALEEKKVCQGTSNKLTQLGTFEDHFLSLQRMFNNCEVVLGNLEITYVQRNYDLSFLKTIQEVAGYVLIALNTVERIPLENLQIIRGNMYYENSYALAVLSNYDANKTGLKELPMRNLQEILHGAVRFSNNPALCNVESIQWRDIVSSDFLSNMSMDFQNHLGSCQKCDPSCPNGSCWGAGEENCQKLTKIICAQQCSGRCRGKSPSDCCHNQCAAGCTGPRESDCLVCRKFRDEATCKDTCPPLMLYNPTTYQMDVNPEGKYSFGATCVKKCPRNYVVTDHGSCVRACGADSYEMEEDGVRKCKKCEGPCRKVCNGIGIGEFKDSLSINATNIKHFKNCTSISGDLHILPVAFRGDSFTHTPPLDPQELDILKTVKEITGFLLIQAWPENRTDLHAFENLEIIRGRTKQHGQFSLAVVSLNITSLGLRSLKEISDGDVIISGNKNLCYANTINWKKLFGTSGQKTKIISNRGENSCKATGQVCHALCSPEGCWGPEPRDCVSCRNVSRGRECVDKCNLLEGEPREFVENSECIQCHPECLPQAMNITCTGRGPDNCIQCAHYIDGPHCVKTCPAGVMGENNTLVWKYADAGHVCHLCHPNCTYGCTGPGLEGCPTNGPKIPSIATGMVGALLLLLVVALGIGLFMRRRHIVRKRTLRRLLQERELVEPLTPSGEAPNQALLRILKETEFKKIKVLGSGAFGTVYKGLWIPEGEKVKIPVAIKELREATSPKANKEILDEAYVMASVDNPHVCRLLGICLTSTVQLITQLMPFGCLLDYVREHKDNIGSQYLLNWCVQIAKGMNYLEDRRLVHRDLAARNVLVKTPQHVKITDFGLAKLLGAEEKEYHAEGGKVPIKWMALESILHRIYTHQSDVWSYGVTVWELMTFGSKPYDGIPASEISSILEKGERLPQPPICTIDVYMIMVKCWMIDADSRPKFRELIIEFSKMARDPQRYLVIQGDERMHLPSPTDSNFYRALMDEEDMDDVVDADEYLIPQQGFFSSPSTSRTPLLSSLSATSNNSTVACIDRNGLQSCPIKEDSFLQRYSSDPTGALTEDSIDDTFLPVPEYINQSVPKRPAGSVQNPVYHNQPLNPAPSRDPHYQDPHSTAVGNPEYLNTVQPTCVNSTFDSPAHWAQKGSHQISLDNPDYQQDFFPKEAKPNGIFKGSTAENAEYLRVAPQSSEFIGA

C=CC(=O)N1CCC(Cn2cc(-c3ccc4c(c3)OCO4)c3c(N)ncnc32)CC1
IC50 [1]: > 10 µM
IC50 [2]: > 10 µM
half-life at 100 µM [3]: 2.82 h
IC50 [4]: > 10 µM
CL/F [5]: 45.8 mL/min/kg
IC50 [6]: > 10 µM
AUCt [7]: 2522.28 ng·h/mL
IC50 [8]: 1.13 µM
IC50 [9]: 0.504 µM
CL [10]: 137 mL/min/kg
IC50 [11]: 0.636 µM
IC50 [12]: > 10 µM
Activity [13]: Non-Toxic
Activity [14]: Non-Toxic
IC50 [15]: 0.657 µM
IC50 [16]: > 10 µM
Vd [17]: 26.15 L/kg
inhibition [18]: Dose-dependent effect
IC50 [19]: > 10 µM
Activity [20]: Non-Toxic
inhibition [21]: Active
IC50 [22]: 1 µM
IC50 [23]: > 10 µM
IC50 [24]: > 10 µM
IC50 [25]: > 10 µM
IC50 [26]: > 10 µM
IC50 [27]: > 10 µM
Ka [28]: 9630 M⁻¹ s⁻¹
bioavailability [29]: 49.1%
inhibition [30]: Active
CLH [31]: 8.2 µL/min/mg
IC50 [32]: > 10 µM
IC50 [33]: 0.331 µM
IC50 [34]: > 10 µM
Activity [35]: Non-Toxic
CLH [36]: 4.2 µL/min/mg
IC50 [37]: > 10 µM
Activity [38]: Non-Toxic
IC50 [39]: 1.11 µM
IC50 [40]: > 10 µM
IC50 [41]: > 10 µM
AUC(0-t) at 24 h [42]: 1240 ng·h/mL
Activity [43]: Non-Toxic
